In one data set the test system is Escherichia coli. The data set is classed as cell-based. Particulars: 2 h, pH 7. The procedure:
(§1) Veterinary clinical isolates, including Salmonella typhimurium, multi-drug resistant Escherichia coli, methicillin-resistant Staphylococcus aureus (MRSA), and methicillin-resistant Staphylococcus pseudointermedius (MRSP), were kindly provided by Dr. H. Cai (Department of Pathobiology, University of Guelph, ON, Canada). An antibiogram for these strains is available in the supplementary text (Table S1). Gram-negative strains were cultured in Luria−Bertani (LB) broth. Gram-positive strains were cultured in Tryptic soy broth (TSB). Both cultures were grown under aerobic conditions at 37 °C.
(§2) The minimum bactericidal concentration (MBC) of SynPG-1 against the tested pathogens was identified through a broth macrodilution antimicrobial assay as previously described, with some modification. […] The buffer volume was adjusted to accommodate the addition of SynPG-1 and PG-1 so that the final solution volume was 0.5 mL for each tested concentration. Final peptide concentrations ranged from 0.1 µg/mL to 8 µg/mL. PG-1 at the known MBC (2 µg/mL E. coli; 4 µg/mL S. typhimurium; 0.5 µg/mL MRSP; 0.5 µg/mL MRSA) was considered the in-house positive control, while the suspension containing no peptide was considered the negative control. Experimental and control tubes were incubated for 2 h at 37 °C without shaking to allow for bactericidal action to occur. […] Colony numbers from each plate were recorded. […]

The next data set relates to MRSP. The data set is classed as cell-based, Methicillin-resistant Staphylococcus pseudointermedius. The conditions noted are these: 2 h, pH 7. The procedure:
as §1, §2

For the next data set, the system named is MRSA biofilm. Description: Biofilm inhibition assay, crystal violet. The conditions noted are these: minimal salt media, 48 h 37 °C static, crystal violet OD 590 nm; p < 0.05 vs control; concentration dependent. The data set is classed as cell-based, Methicillin-resistant Staphylococcus aureus. The procedure: Plates were placed in a static incubator at 37 °C for 48 h; the time required for untreated wells to form biofilm. After incubation, treated media was removed and wells were rinsed with 155 µL of PBS to remove planktonic cells. After sufficient air drying of wells, 150 µL of 0.1% Crystal violet stain was added to each well and incubated at room temperature for 30 min, after which, dye was removed and wells were rinsed again with 155 µL of PBS. After sufficient drying of wells, 150 µL of 70% ethanol solution was added to each well and incubated at room temperature for 30 min. After 30 min, 100 µL of each well was added to a new 96-well plate and absorbance was measured at an OD of 590 nm.

In another data set the test system is IPEC-J2 cells. Description: In vitro cell migration, transwell assay. The data set is classed as cell-based, porcine. The conditions noted are these: transwell 8-micron, serum-free DMEM F-12, 5 to 20 µg/mL, 16 h, Hoechst 33342 count; SynPG-1 not significant at higher concentrations. The protocol:
A cell line, established from intestinal porcine enterocytes, isolated from the jejunum of a neonatal unsuckled piglet (IPEC-J2 cells, DSMZ), was grown in monolayer culture in Dulbecco’s modified Eagle’s medium (high glucose), supplemented with 10% fetal bovine serum (FBS) from Invitrogen, 100 IU/mL penicillin, and 100 µg/mL streptomycin. Cultures were maintained in a 5% CO2 humidified atmosphere at 37 °C and passaged every 2–3 days, with detachment via the Trypsin-EDTA solution (Sigma).
To evaluate migration of IPEC-J2 cells, 8-micron pore-sized cell culture transwell inserts were used (Millipore Inc, Temecula, CA, USA). A total of 1 × 10^5 cells were plated in the upper inserts of the transwell and placed within 24-well plates, containing serum-free DMEM F-12 in the absence and presence of SynPG-1 or PG-1, at concentrations ranging from 5 µg/mL to 20 µg/mL. After incubation for 16 h, the cells were fixed with 4% (w/v) paraformaldehyde. […] Migration was quantified by cell enumeration through Hoechst 33342 staining of cell nuclei (Thermo Fisher Scientific, Mississauga, ON, Canada). The results are represented as the relative fold increase in migrated cells when compared to the baseline migration of IPEC-J2 cells in serum-free media after 16 h.

The conditions of data set [1]: 25% porcine intestinal fluid (pH 6.5) in PBS, 1 mg/mL peptide, 1 h 37 °C with shaking; residual activity vs E. coli at 20 µg/mL, colony count; three independent experiments.
Procedure: Porcine digestive fluids were collected, as previously described by Wang et al. [44]. […] The gastrointestinal tract was kept at 4 °C during dissection, and collection of contents from the stomach and upper small intestine (duodenum and jejunum) was conducted within 5 h of sacrifice. Contents were centrifuged at 10,000 rpm (9600× g) for 10 min at 4 °C, and supernatant fluid was collected and stored at −80 °C until its use in the stability experiment. The pH of the collected supernatants were 3.5 and 6.5 for gastric fluid and duodenum fluid, respectively.
Procedures similar to those used by Egger et al. [45] were used for this experiment. […] Suspension containing no peptide was considered the negative control. After incubation, 10 µL of the incubated solutions was added for a total volume of 0.5 mL, consisting of 20 µL of mid-logarithmic phase E. coli cells, diluted to a concentration of about 1 × 10^5 CFU/mL, and 470 µL of 20 mM sodium phosphate buffer (pH 7). […] Stability in porcine digestive fluid was evaluated as the relative colony growth on plates from bacterial grown with digestive fluid and peptide treatments, in comparison to plates grown from bacteria grown with digestive fluid alone.
Stability was evaluated by comparing the mean growth of colonies on plates treated with peptides incubated in digestive fluids to colonies grown when treated without peptide. […]

The source of these data is publication PMC7407491, “The Addition of a Synthetic LPS-Targeting Domain Improves Serum Stability While Maintaining Antimicrobial, Antibiofilm, and Cell Stimulating Properties of an Antimicrobial Peptide” (Biomolecules, 2020).

Values after ≈ are worked out from the molar mass of the structure shown. Bridge positions count the residues as written; N and C are the ends. Peptide text beside a SMILES is read from it.

In the case of `CC[C@H](C)[C@H](NC(=O)[C@H](CCCCN)NC(=O)[C@H](CCCNC(=N)N)NC(=O)[C@H](CC(C)C)NC(=O)[C@H](CC(C)C)NC(=O)[C@H](CCCNC(=N)N)NC(=O)[C@H](CCCNC(=N)N)NC(=O)[C@H](CC(C)C)NC(=O)CN)C(=O)N[C@@H](CCCNC(=N)N)C(=O)NCC(=O)N[C@@H](CCCNC(=N)N)C(=O)N[C@@H](Cc1c[nH]c2ccccc12)C(=O)N[C@@H](CCCCN)C(=O)NCC(=O)NCC(=O)NCC(=O)N[C@@H](CCCNC(=N)N)C(=O)NCC(=O)NCC(=O)N[C@@H](CCCNC(=N)N)C(=O)N[C@@H](CC(C)C)C(=O)N[C@H]1CSSC[C@@H](C(=O)N[C@H](C(=O)NCC(=O)N[C@@H](CCCNC(=N)N)C(=O)O)C(C)C)NC(=O)[C@H](C(C)C)NC(=O)[C@@H]2CSSC[C@H](NC(=O)[C@H](Cc3ccc(O)cc3)NC1=O)C(=O)N[C@@H](CCCNC(=N)N)C(=O)N[C@@H](CCCNC(=N)N)C(=O)N[C@@H](CCCNC(=N)N)C(=O)N[C@@H](Cc1ccccc1)C(=O)N2` [SynPG-1, Syn-Protegrin-1] (H-GLRRLLRKIRGRWKGGGRGGRLCYCRRRFCVCVGR-OH; disulfide 23-32, 25-30; N-terminus and C-terminus assumed), the MBC against Escherichia coli is 2 µg/mL (≈ 0.486 µM); against MRSP it was 0.5 (0.09) μg/mL. In the data set with MRSA biofilm, the “Concentration at which inhibition of biofilm formation was seen” value stood at 2 µg/mL. For the same compound, the “Concentration at which cell migration increased significantly” value in the data set with IPEC-J2 cells came out at 5 µg/mL. Also, the “Antimicrobial activity after incubation in 25% porcine intestinal fluid” value in data set [1] is given as “mean % growth of control increased”.
